Calls of active or inactive are those of the source.
Key:
[1] = P. falciparum ATP4 D1247Y mutant growth inhibitors, dose response, NITD609-resistant line, SYBR Green, dry powder (AID 1159571); assay type: functional, cell-based;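 note: parasites synchronized at ring stage by sorbitol before testing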
[2] = P. falciparum 3D7-ScDHODH growth inhibitors, dose response, SYBR Green, dry powder samples (AID 1159570); assay type: functional, cell-based;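 note: parasite growth measured after 72 hours of compound exposure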
[3] = P. falciparum Dd2 growth inhibitors, dose response, SYBR Green, cherry-picked samples (AID 1159567); assay type: functional, cell-based
[4] = P. falciparum Dd2 growth inhibitors, dose response, SYBR Green, dry powder samples (AID 1159566); assay type: functional, cell-based;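 note: potency for growth inhibition with lower SYBR green DNA signal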
[5] = HepG2 cell cytotoxicity, dose response, cytotoxicity control, cherry-picked samples (AID 1159577); assay type: functional, cell-based
[6] = molecular target: Solute carrier family 12 member 2/member 5 (Homo sapiens, UniProt P55011+Q9H2X9); assay: KCC2 and NKCC1 inhibition by rubidium flux, cell-based, NKCC1 counter-screen (AID 1734); assay type: functional, HEK293
cells = assay type: functional
[7] = microbe, parasite or virus in culture; assay type: functional; settings: Mycobacterium tuberculosis
[8] = THP-1 cell cytotoxicity, dose response, cytotoxicity control for non-replicating M. tuberculosis project (AID 489025); assay type: functional
[9] = Vero E6 cell cytotoxicity, dose response, cytotoxicity control for non-replicating M. tuberculosis project, secondary assay (AID 492998); assay type: functional, VeroE6; settings: Vero C1008
[10] = Artemis endonuclease inhibitor potency, dose response, biochemical, fluorescence intensity (AID 720701); assay type: functional;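 note: Artemis endonuclease enzyme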
[11] = Luminescence Cell-Based Dose Confirmation HTS to Identify Inhibitors of Platelet Dense Granule Release. [Related pubchem assays: 1663 (Primary HTS), 1678 (Summary of Project)]; assay type: functional
[12] = molecular target: Luciferin 4-monooxygenase (Photinus pyralis, UniProt P08659); assay: firefly luciferase enzyme inhibitors, dose response, biochemical, luminescence (AID 1891)
Chain of Luciferin 4-monooxygenase (P08659 whole entry): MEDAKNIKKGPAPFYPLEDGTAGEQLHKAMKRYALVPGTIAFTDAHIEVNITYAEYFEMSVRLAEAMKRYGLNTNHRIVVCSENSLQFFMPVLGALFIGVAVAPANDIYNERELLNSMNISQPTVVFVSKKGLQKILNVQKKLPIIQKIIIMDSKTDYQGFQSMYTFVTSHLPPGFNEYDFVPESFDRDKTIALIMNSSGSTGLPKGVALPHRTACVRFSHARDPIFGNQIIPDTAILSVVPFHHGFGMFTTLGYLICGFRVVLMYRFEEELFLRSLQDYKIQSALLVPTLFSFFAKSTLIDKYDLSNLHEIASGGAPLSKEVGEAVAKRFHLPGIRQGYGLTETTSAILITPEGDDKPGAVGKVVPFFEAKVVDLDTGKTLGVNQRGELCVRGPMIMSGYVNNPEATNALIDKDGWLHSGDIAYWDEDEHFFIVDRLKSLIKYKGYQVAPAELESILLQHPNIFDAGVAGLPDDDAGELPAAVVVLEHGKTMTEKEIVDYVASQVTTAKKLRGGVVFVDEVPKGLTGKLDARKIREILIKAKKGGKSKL

[13] = AlphaScreen signal interference compounds, dose response, artefact control for ARNT-TACC3 interaction inhibitor project, biochemical, luminescence, cherry-pick (AID 651705); assay type: functional;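 note: AlphaScreen bead proximity signal that flags compounds interfering with the detection technology; potency reflects signal decrease which marks the compound as an assay artifact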
[14] = ARNT/TACC3 interaction disruptors, potency, confirmation, biochemical, AlphaScreen, cherry-picked samples (AID 651703); assay type: functional, Homo sapiens;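 note: His-tagged ARNT PAS-B domain paired with GST-TACC3 E629A dimer coactivator fragment; potency of inhibitors that break up the complex and lower AlphaScreen signal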
[15] = molecular target: Mannose-6-phosphate isomerase (Homo sapiens, UniProt P34949); assay: human PMI inhibitors, high substrate, primary screen, biochemical, fluorescence intensity, high mannose 6-phosphate (AID 1220)
Chain of Mannose-6-phosphate isomerase (P34949 whole entry): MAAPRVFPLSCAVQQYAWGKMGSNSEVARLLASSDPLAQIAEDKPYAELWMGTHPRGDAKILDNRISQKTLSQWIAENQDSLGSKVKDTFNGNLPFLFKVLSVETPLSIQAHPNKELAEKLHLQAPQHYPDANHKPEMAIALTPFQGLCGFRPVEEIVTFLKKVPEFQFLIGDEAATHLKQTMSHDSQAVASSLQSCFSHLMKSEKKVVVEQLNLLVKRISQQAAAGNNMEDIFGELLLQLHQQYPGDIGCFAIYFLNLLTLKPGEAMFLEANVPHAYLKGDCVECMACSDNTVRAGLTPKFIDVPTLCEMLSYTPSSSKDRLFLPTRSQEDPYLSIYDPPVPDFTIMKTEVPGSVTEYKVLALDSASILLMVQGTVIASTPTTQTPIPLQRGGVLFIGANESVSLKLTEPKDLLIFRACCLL

[16] = inhibitors of intracellular T. cruzi replication, confirmation, NIH3T3 host cells, beta-gal luminescence (AID 2044); assay type: functional, cell-based;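 note: intracellular parasites grown in NIH/3T3 mouse fibroblasts as host cells; luminescent beta-galactosidase reporter signal from transgenic T. cruzi replicating inside host cells; inhibitors lower the luminescence signal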
[17] = cytotoxicity toward NIH3T3 fibroblasts, dose response, counter-screen, cell-based, ATP luminescence, mouse fibroblasts (AID 2010); assay type: functional;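 note: cells exposed to compound for about 90 hours before reading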
Vero [18] = assay: West Nile virus antiviral activity, cell-based, CPE readout (AID 1621); assay type: functional; settings: Chlorocebus sabaeus
Vero [19] = assay: host cell cytotoxicity of antiviral hits, dose response, cytotoxicity control for West Nile virus antiviral project, secondary assay (AID 1650); assay type: functional; settings: Chlorocebus sabaeus
[20] = molecular target: NAD-dependent protein deacylase sirtuin-5, mitochondrial (Homo sapiens, UniProt Q9NXA8); assay: SIRT5 desuccinylase inhibitors, dose response, biochemical, fluorescence imaging, cherry-pick, set 5 (AID 720591);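 note: desuccinylation of succinyl peptide AMC substrate read as fluorescence after trypsin release; potency of inhibitors that lower fluorescence and may act on trypsin instead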
Chain of NAD-dependent protein deacylase sirtuin-5, mitochondrial (Q9NXA8 whole entry): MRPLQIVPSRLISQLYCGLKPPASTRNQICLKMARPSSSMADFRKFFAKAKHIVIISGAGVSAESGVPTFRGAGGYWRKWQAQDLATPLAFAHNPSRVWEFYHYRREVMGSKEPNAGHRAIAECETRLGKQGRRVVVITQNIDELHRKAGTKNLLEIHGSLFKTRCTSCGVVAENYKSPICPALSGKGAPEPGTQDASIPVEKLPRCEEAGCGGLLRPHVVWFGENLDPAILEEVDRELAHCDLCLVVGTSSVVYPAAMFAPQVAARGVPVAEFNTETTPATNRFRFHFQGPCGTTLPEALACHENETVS

[21] = HeLa 4N DNA content increase, dose response, cell-based, IC50 (AID 1117351); assay type: functional
[22] = HeLa 2N DNA content increase, dose response, cell-based, IC50 (AID 1117349); assay type: functional
[23] = P. falciparum late gametocyte killing, dose response, luminescence (AID 1117278); assay type: functional, cell-based;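 note: gametocytes exposed to compound for 24 hours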
[24] = Jurkat T cell cytotoxicity, dose response, cytotoxicity control for P. falciparum gametocyte viability project, luminescence (AID 1117277); assay type: functional, cell-based;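 note: potency reflects loss of cellular ATP meaning fewer viable cells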
SN12K1 = assay: cells; assay type: functional; settings: Homo sapiens
P388 = assay: cells; assay type: functional; settings: Mus musculus
[25] = Glucagon-like peptide 1 release potency, NCI-H716 cell line, dose-response, half-maximal inhibitory concentration (AID 1117344); assay type: functional, cell-based
[26] = half-maximal inhibitory concentration for glucagon-like peptide-1 release, STC-1 cell line, dose-response (AID 1117345); assay type: functional, cell-based
P388/ADR = assay: cells; assay type: functional; settings: Mus musculus

In the case of O=C(c1cccc(F)c1)N1CC(=O)N2[C@H](C1)[C@@H](c1ccc(-c3cccnc3)cc1)[C@@H]2CO, the AC50 [1] is reported as 0.0729 µM (active), the AC50 [2] is reported as 0.151 µM (active) and the AC50 [3] is reported as 0.331 µM (active). For the same compound, the AC50 [4] was 0.088 µM (active).
With O=C(C1CC1)N1CC(=O)N2[C@H](C1)[C@@H](c1ccc(C#CCc3ccccc3)cc1)[C@@H]2CO the AC50 [3] was 9.21 µM (active) and the AC50 [5] was 35.5 µM (active).
With CC(C)c1onc(C(=O)N2CCN(Cc3ccccc3)CC2)c1[N+](=O)[O-] the IC50 [6] was 1.5 µM (active).
In the case of c1ccc(-c2nc3c(ccc4ccccc43)[nH]2)nc1, the IC50 (cells) is reported as 18.9 µM (active), the CC50 [7] is reported as > 40 µM (active) and the CC50 [8] is reported as 38.9 µM (active). The CC50 [9] was > 20 µM (active), the IC50 [10] was 14.4 µM (active) and the EC50 [11] was 27.1 µM (active). The EC50 [12] was 4.22 µM (active), the AC50 [13] was 119 µM (active) and the AC50 [14] was 79 µM (active).
With FC(F)Oc1cccc(NC(=S)N2CCN(c3ccccn3)CC2)c1 the IC50 [15] was > 50 µM (not active).
With CN1CCc2ccccc2C1Cc1ccccc1NC(=O)c1sc2ccccc2c1Cl (stereo unspecified) the EC50 [16] was 2.73 µM (active), the EC50 [17] was > 60 µM (not active) and the IC50 (Vero [18]) was 41.2 µM (active). For the same compound, the CC50 (Vero [19]) was > 100 µM (active).
For CCn1ccnc1CN(C)C(=O)CC1C(=O)NCCN1Cc1c(F)cccc1Cl (stereo unspecified), the AC50 [20] was > 30 µM (inactive).
With CCCOc1ccc2[nH]c(NC(=O)OC)nc2c1 [OXIBENDAZOLE] the IC50 [21] was 0.0567 µM (active) and the IC50 [22] was 0.0622 µM (active).
In the case of CC(C)c1cc(C(=O)O)c2cnn(C(C)C)c2n1, the IC50 [23] is reported as > 109 µM (inactive) and the IC50 [24] is reported as > 83.2 µM (inactive).
With CCCCCCCCCCCCCCCCCCOCC(O)CO (stereo unspecified) [BATILOL] the GI50 (SN12K1) was 22.5 µM (inactive), the GI50 (P388) was 6.65 µM (inactive) and the IC50 [25] was > 40 µM (inactive). The IC50 [26] was > 40 µM (inactive) and the GI50 (P388/ADR) was 9.82 µM (inactive).

From ChEMBL document CHEMBL1201862, “PubChem BioAssay data set” (2004)
